This note sets out measurements from patent US7060725B2, “Substituted sulfamate anticonvulsant derivatives” (Janssen Pharmaceutica N.V., priority 2002, dated 2006).

The test system of assay [1] is maximal electroshock seizure (MES-induced seizure spread). The assay is described as follows: Maximal electroshock seizure (MES) test, rat. The assay is classed as in vivo, rats. On the procedure: Anticonvulsant activity was determined using the standard MES model for generalized tonic-clonic seizures (Swinyard E A, Woodhead J H, White H S, Franklin M R, In: […], Meldrum […], Dreifuss F E eds. Antiepileptic drugs. New York: Raven Press, 1989:85-102). An electric stimulus of 0.2 sec duration, 60 Hz, 50 mA in mice, 150 mA in rats, was delivered via corneal electrodes primed with an electrolyte solution containing an anesthetic agent (0.5% tetracaine hydrochloride in 0.9% saline). Mice or rats were randomly selected into control and test groups. The animals were dosed with vehicle or test compound, at varying concentrations. Mice were subjected to the electrical stimulus at 30 minutes and 4 hours following administration of test compound. […] Abolition of the hind limb tonic extensor component was an indication of the test compound's ability to inhibit MES-induced seizure spread. […] A probit analysis (Finney D J. Probit Analysis. Cambridge, England: Cambridge University Press, 1971) was used to calculate the ED50. Following the rat procedure described above, representative compounds of the instant invention were tested for biological activity in the rat, with results as listed in Table 6 and 7. Rat activity is listed as number of rats active/total number of rats tested @ time after administration of the test compound.
In general terms: Protection in the maximal electroshock model is a classic sign of anticonvulsant action.

Assay [2] shares this test system. The assay is described as follows: Maximal electroshock seizure (MES) test, mouse. The assay is classed as in vivo, mice. On the procedure:
Anticonvulsant activity was determined using the standard MES model for generalized tonic-clonic seizures (Swinyard E A, Woodhead J H, White H S, Franklin M R, In: Levy R H, Mattson R H, Meldrum B S, Penry J K, Dreifuss F E eds. Antiepileptic drugs. New York: Raven Press, 1989:85–102).
An electric stimulus of 0.2 sec duration, 60 Hz, 50 mA in mice, 150 mA in rats, was delivered via corneal electrodes primed with an electrolyte solution containing an anesthetic agent (0.5% tetracaine hydrochloride in 0.9% saline).
Mice or rats were randomly selected into control and test groups. The animals were dosed with vehicle or test compound, at varying concentrations. […] Rats were subjected to electrical stimulus at time intervals between 15 minutes and 4 hours following administration of test compound. Abolition of the hind limb tonic extensor component was an indication of the test compound's ability to inhibit MES-induced seizure spread.
The ED50 (the calculated dose required to block the hindlimb tonic-extensor component of the maximal electroshock seizure in 50% of the animals tested) was calculated. A probit analysis (Finney D J. Probit Analysis. Cambridge, England: Cambridge University Press, 1971) was used to calculate the ED50.
Following the mouse procedure described above, representative compounds of the instant invention were tested for biological activity in the mouse, with results as listed in Table 5. Mouse activity is listed as number of mice active/total number of mice tested @ time after administration of the test compound.

[3] abbreviates: 300 mg/kg, @ 0.5 hrs after administration.
Setting [4] is: 300 mg/kg, @ 4 hrs after administration.
The mark [5] stands for this setting: 100 mg/kg, @ 4 hrs after administration.

Take `C=CCNS(=O)(=O)OC[C@@]12OC[C@H]3OC(C)(C)OC3[C@@H]1OC(C)(C)O2` (stereo partly drawn) [Compound 2, N-allyl-2,3:4,5-bis-O-(1-methylethylidene)-β-D-fructopyranose sulfamate]: the ED50 in assay [1] (@ 2 hrs) is listed as 11.89 @ 2 hrs m/k. Also, the “Rat Activity (oral) (number of rats active/total number of rats tested)” value is reported as 3/4 @ 2 hrs in assay [1] (8 mg/kg, @ 2 hrs); 2/4 @ 4 hrs in assay [1] (8 mg/kg, @ 4 hrs); 1/4 @ 6 hrs in assay [1] (8 mg/kg, @ 6 hrs); 1/4 @ 8 hrs in assay [1] (8 mg/kg, @ 8 hrs); 1/4 @ 0.5 hrs in assay [1] (20 mg/kg, @ 0.5 hrs); 2/2 @ 2 hrs in assay [1] (20 mg/kg, @ 2 hrs). For the same molecule, the “Rat Activity (oral) (number of rats active/total number of rats tested)” value is reported as 1/2 @ 4 hrs in assay [1] (20 mg/kg, @ 4 hrs); 1/2 @ 6 hrs in assay [1] (20 mg/kg, @ 6 hrs); 3/8 @ 1 hr in assay [1] (200 mg/kg, @ 1 hr); 4/8 @ 2 hrs in assay [1] (200 mg/kg, @ 2 hrs); 2/8 @ 4 hrs in assay [1] (200 mg/kg, @ 4 hrs); 1/8 @ 6 hrs in assay [1] (200 mg/kg, @ 6 hrs).

As to `CC1(C)OC2COC3(COS(=O)(=O)NCCBr)OC(C)(C)OC3C2O1` (stereo not shown) [Compound 3], the “Rat Activity (oral) (number of rats active/total number of rats tested)” value is recorded as 1/4 @ 1 hr in assay [1] (30 mg/kg, @ 1 hr) and 2/4 @ 2 hrs in assay [1] (30 mg/kg, @ 2 hrs). Further, the “Mouse Activity” value in assay [2] (dosage 30, 100, 300 mg/kg) is “No Activity”.

As to `CCOC(=O)CCNS(=O)(=O)OCC12OCC3OC(C)(C)OC3C1OC(C)(C)O2` (stereo not shown) [Compound 4], the “Rat Activity (oral) (number of rats active/total number of rats tested)” value in assay [1] (30 mg/kg, @ 1 hr) is given as 1/4 @ 1 hr. For the same molecule, the “Mouse Activity” value in assay [2] (dosage 30, 100, 300 mg/kg) is given as “No Activity”.

Turning to `COC(=O)CNS(=O)(=O)OCC12OCC3OC(C)(C)OC3C1OC(C)(C)O2` (stereo not shown) [Compound 5], the ED50 in assay [1] (@ 2 hrs) is on record as >80 @ 2 hrs m/k. Also, the “Rat Activity (oral) (number of rats active/total number of rats tested)” value in assay [1] (30 mg/kg, @ 2 hrs) is 3/4 @ 2 hrs; in assay [1] (30 mg/kg, @ 4 hrs), 1/4 @ 4 hrs. In addition, in assay [2] (dosage 30, 100, 300 mg/kg), the “Mouse Activity” value was “No activity”.

With `CC1(C)OC2COC3(COS(=O)(=O)N[Si](c4ccccc4)(c4ccccc4)c4ccccc4)OC(C)(C)OC3C2O1` (stereo not shown) [Compound 6], the “Mouse Activity” value in assay [2] (dosage 30, 100, 300 mg/kg) is reported as “No activity”.

Regarding `COC(=O)CCCNS(=O)(=O)OCC12OCC3OC(C)(C)OC3C1OC(C)(C)O2` (stereo not shown) [Compound 8], the “Mouse Activity (number of mice active/total number of mice tested)” value in assay [2] (setting [3]) is reported as 1/1 @ 0.5 hrs. Further, the “Mouse Activity” value in assay [2] (dosage 30, 100 mg/kg) is recorded as “No activity”.

Regarding `CC1(C)OC2[C@@H](CO[C@@]3(COS(=O)(=O)NO)OC(C)(C)O[C@@H]23)O1` (stereo partly drawn) [Compound 9, N-hydroxy-2,3:4,5-bis-O-(1-methylethylidene)-β-D-fructopyranose sulfamate], the ED50 in assay [1] (@ 4 hrs) is listed as 68.72 @ 4 hrs m/k. Besides, the “Rat Activity (oral) (number of rats active/total number of rats tested)” value in assay [1] (30 mg/kg, @ 1 hr) is 1/4 @ 1 hr; in assay [1] (30 mg/kg, @ 2 hrs) it was 2/4 @ 2 hrs; in assay [1] (30 mg/kg, @ 4 hrs) it was 1/4 @ 4 hrs. Also, the “Mouse Activity (number of mice active/total number of mice tested)” value in assay [2] (setting [4]) is recorded as 1/1 @ 4 hrs. For the same molecule, in assay [2] (dosage 30 mg/kg), the “Mouse Activity” value is on record as “No activity”.

`CONS(=O)(=O)OCC12OCC3OC(C)(C)OC3C1OC(C)(C)O2` (stereo not shown) [Compound 10]: the “Mouse Activity (number of mice active/total number of mice tested)” value in assay [2] (setting [3]) is listed as 1/1 @ 0.5 hrs; in assay [2] (setting [4]), 1/1 @ 4 hrs. For the same molecule, in assay [2] (dosage 30, 100 mg/kg), the “Mouse Activity” value is reported as “No activity”.

Turning to `CON(C)S(=O)(=O)OCC12OCC3OC(C)(C)OC3C1OC(C)(C)O2` (stereo not shown) [Compound 11], the ED50 in assay [1] (@ 4 hrs) is on record as 26.75 @ 4 hrs m/k. The “Rat Activity (oral) (number of rats active/total number of rats tested)” value in assay [1] (30 mg/kg, @ 0.5 hrs) is reported as 2/3 @ 0.5 hrs; in assay [1] (30 mg/kg, @ 2 hrs), 2/3 @ 2 hrs; in assay [1] (30 mg/kg, @ 4 hrs), 2/3 @ 4 hrs. The “Mouse Activity” value in assay [2] (dosage 30, 100, 300 mg/kg) is recorded as “No activity”.

For the molecule `CN(O)S(=O)(=O)OCC12OCC3OC(C)(C)OC3C1OC(C)(C)O2` (stereo not shown) [Compound 12], the “Rat Activity (oral) (number of rats active/total number of rats tested)” value in assay [1] (15 mg/kg, @ 1 hr) is recorded as 1/4 @ 1 hr. Further, in assay [2] (dosage 30, 100, 300 mg/kg), the “Mouse Activity” value is recorded as “No activity”.

With `CC1(C)OC2COC3(COS(=O)(=O)NC(=O)O[Si](c4ccccc4)(c4ccccc4)c4ccccc4)OC(C)(C)OC3C2O1` (stereo not shown) [Compound 13], the “Rat Activity (oral) (number of rats active/total number of rats tested)” value in assay [1] (30 mg/kg, @ 0.5 hrs) is 1/4 @ 0.5 hrs; in assay [1] (30 mg/kg, @ 1 hr), 1/4 @ 1 hr. The “Mouse Activity” value in assay [2] (dosage 30, 100, 300 mg/kg) is “No activity”.

Regarding `CC(C)(C)OC(=O)NS(=O)(=O)OC[C@@]12OC[C@H]3OC(C)(C)OC3[C@@H]1OC(C)(C)O2` (stereo partly drawn) [Compound 14, N-t-butoxycarbonyl-2,3:4,5-bis-O-(1-methylethylidene)-β-D-fructopyranose sulfamate], the “Rat Activity (oral) (number of rats active/total number of rats tested)” value in assay [1] (30 mg/kg, @ 2 hrs) is on record as 3/4 @ 2 hrs; in assay [1] (30 mg/kg, @ 4 hrs), 4/4 @ 4 hrs. Also, the “Mouse Activity” value in assay [2] (dosage 30, 100, 300 mg/kg) is on record as “No activity”.

As to `CC1(C)OC2[C@@H](CO[C@@]3(COS(=O)(=O)NC(=O)OCc4ccccc4)OC(C)(C)O[C@@H]23)O1` (stereo partly drawn) [Compound 15, N-benzyloxycarbonyl-2,3:4,5-bis-O-(1-methylethylidene)-β-D-fructopyranose sulfamate], the “Mouse Activity (number of mice active/total number of mice tested)” value in assay [2] (100 mg/kg, @ 1 hr after administration) is given as 3/3 @ 1 hr; in assay [2] (setting [5]) it was 2/3 @ 4 hrs; in assay [2] (setting [3]) it was 1/1 @ 0.5 hrs; in assay [2] (setting [4]) it was 1/1 @ 4 hrs. Further, in assay [2] (dosage 30 mg/kg), the “Mouse Activity” value is “No activity”.

Turning to `CC1(C)O[C@@H]2[C@@H](CO[C@@]3(COS(=O)(=O)[N-]C(=O)OCc4ccccc4)OC(C)(C)O[C@@H]23)O1.[Na+]` [Compound 17, N-(benzyloxy-carbonyl)-2,3:4,5-bis-O-(1-methylethylidene)-β-D-fructopyranose sulfamate sodium salt], the ED50 in assay [1] (@ 4 hrs) is 10.37 @ 4 hrs, m/k; in assay [1] (@ 6 hrs), 3.26 @ 6 hrs m/k. The “Rat Activity (oral) (number of rats active/total number of rats tested)” value in assay [1] (30 mg/kg, @ 0.25 hrs) is recorded as 1/4 @ 0.25 hrs; in assay [1] (30 mg/kg, @ 0.5 hrs), 2/4 @ 0.5 hrs; in assay [1] (30 mg/kg, @ 1 hr), 1/4 @ 1 hr; in assay [1] (30 mg/kg, @ 2 hrs), 4/4 @ 2 hrs; in assay [1] (30 mg/kg, @ 4 hrs) it was 4/4 @ 4 hrs.

Regarding `CC(=O)[N-]S(=O)(=O)OC[C@@]12OC[C@H]3OC(C)(C)OC3[C@@H]1OC(C)(C)O2.[Na+]` (stereo partly drawn) [Compound 18, N-acetyl-2,3:4,5-bis-O-(1-methylethylidene)-β-D-fructopyranose sulfamate sodium salt], the “Rat Activity (oral) (number of rats active/total number of rats tested)” value in assay [1] (30 mg/kg, @ 0.25 hrs) is recorded as 1/4 @ 0.25 hrs; in assay [1] (30 mg/kg, @ 0.5 hrs) it was 1/4 @ 0.5 hrs; in assay [1] (30 mg/kg, @ 2 hrs), 1/4 @ 2 hrs; in assay [1] (30 mg/kg, @ 4 hrs) it was 3/4 @ 4 hrs. Also, the “Mouse Activity (number of mice active/total number of mice tested)” value is 1/3 @ 0.5 hrs in assay [2] (100 mg/kg, @ 0.5 hrs after administration); 2/3 @ 4 hrs in assay [2] (setting [5]); 1/1 @ 0.5 hrs in assay [2] (setting [3]); 1/1 @ 4 hrs in assay [2] (setting [4]). In addition, the “Mouse Activity” value in assay [2] (dosage 30 mg/kg) is reported as “No activity”.

For the molecule `CC1(C)OC2COC3(COS(=O)(=O)NCCC(=O)O)OC(C)(C)OC3C2O1` (stereo not shown) [Compound 35], the “Mouse Activity (number of mice active/total number of mice tested)” value in assay [2] (setting [3]) was 1/1 @ 0.5 hrs. In assay [2] (dosage 30, 100 mg/kg), the “Mouse Activity” value is reported as “No Activity”.
